melting point | SMILES
102 to 103 °C | CO/C=C(/C(=O)OC)c1ccccc1CO/N=C(C)/C(=N/OC)c1ccc(OCc2cccc(C(F)(F)F)c2)cc1
91 to 93 °C | C#CCO/N=C(/C(C)=NOCc1ccccc1C(=COC)C(=O)OC)c1ccc(F)cc1
90 to 93 °C | CCO/N=C(/C(C)=NOCc1ccccc1C(=NOC)C(=O)OC)c1ccc(Oc2ccc(Cl)cc2)cc1
